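Cells were grown in 96-well plates and exposed to each compound for 48 hours at five concentrations; endpoints were interpolated linearly between bracketing concentrations, or set to the highest concentration if not reached. GI50 is the concentration that inhibits growth by half.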 The source made the active and inactive calls. No stated cut-off is given here; in the data, active = GI50 up to about 1.1 µM and inactive = higher.
What was measured:
Assay in all cases: growth of human tumour cells (NCI), 48 h
A549 = test system: A549
CCRF-CEM = test system: CCRF-CEM
EKVX = test system: EKVX
HCT-15 = test system: HCT-15
MOLT-4 = test system: MOLT-4
Malme-3M = test system: Malme-3M
NCI-H226 = test system: NCI-H226
NCI-H522 = test system: NCI-H522
NCI/ADR-RES = test system: NCI/ADR-RES
OVCAR-5 = test system: OVCAR-5
OVCAR-8 = test system: OVCAR-8
SF-268 = test system: SF-268
SK-MEL-28 = test system: SK-MEL-28
SNB-19 = test system: SNB-19
T47D = test system: T47D
U-251 = test system: U-251
HL-60 = test system: HL-60
SF-539 = test system: SF-539
SK-OV-3 = test system: SK-OV-3

Compound | GI50 (A549) | GI50 (CCRF-CEM) | GI50 (EKVX) | GI50 (HCT-15) | GI50 (MOLT-4) | GI50 (Malme-3M) | GI50 (NCI-H226) | GI50 (NCI-H522) | GI50 (NCI/ADR-RES) | GI50 (OVCAR-5) | GI50 (OVCAR-8) | GI50 (SF-268) | GI50 (SK-MEL-28) | GI50 (SNB-19) | GI50 (T47D) | GI50 (U-251) | GI50 (HL-60) | GI50 (SF-539) | GI50 (SK-OV-3)
CN(C)CN1CSC(=S)N(CN(C)C)C1 | > 100 µM (inactive) | 8.15 µM (inactive) | > 100 µM (inactive) | > 100 µM | 26.7 µM (inactive) | > 100 µM (inactive) | > 100 µM (inactive) | 42 µM (inactive) | > 100 µM (inactive) | > 100 µM (inactive) | > 100 µM (inactive) | > 100 µM (inactive) | > 100 µM (inactive) | > 100 µM (inactive) | > 100 µM (inactive) | 32.3 µM (inactive) |  |  | 
CCOC(=O)CNC(SC)=C(C#N)C#N | > 100 µM (inactive) | > 100 µM (inactive) | > 100 µM (inactive) | > 100 µM | > 100 µM (inactive) | > 100 µM (inactive) | > 100 µM (inactive) | > 100 µM (inactive) |  | > 100 µM (inactive) | > 100 µM (inactive) | > 100 µM (inactive) |  | > 100 µM (inactive) |  | > 100 µM (inactive) | > 100 µM (inactive) | > 100 µM (inactive) | > 100 µM (inactive)
CC(=O)O[C@H]1CC[C@@]2(C)C(=CC[C@@H]3[C@@H]2CC[C@]2(C)c4nc(N)c(C#N)cc4C[C@@H]32)C1 | 25.9 µM (inactive) | 14 µM (inactive) | 27.9 µM (inactive) | 2.94 µM | 11.7 µM (inactive) | 41.5 µM (inactive) | > 100 µM (inactive) | 12.6 µM (inactive) |  | > 85.3 µM (inactive) | 30.3 µM (inactive) | 60.5 µM (inactive) | 40 µM (inactive) | > 100 µM (inactive) | 11.4 µM (inactive) | 43.9 µM (inactive) | 12.2 µM (inactive) | 13.7 µM (inactive) | 38.2 µM (inactive)
CCOC(=O)C(C(=O)OCC)=c1sc(=C(C(=O)OCC)C(=O)OCC)s1 | > 100 µM (inactive) | > 100 µM (inactive) | > 100 µM (inactive) | > 100 µM | > 100 µM (inactive) | > 100 µM (inactive) |  | > 100 µM (inactive) |  | > 100 µM (inactive) | > 100 µM (inactive) | > 100 µM (inactive) | > 100 µM (inactive) |  |  |  | > 100 µM (inactive) |  | > 100 µM (inactive)
C=CCc1cccc(C(=O)/C=C(O)/C=C/c2ccccc2Cl)c1O | 8.91 µM (inactive) | 6.82 µM (inactive) | 29.5 µM (inactive) | 8.39 µM | 3.96 µM (inactive) |  | 18.8 µM (inactive) | 11.2 µM (inactive) | 11.5 µM (inactive) | 33.4 µM (inactive) | 6.04 µM (inactive) | 20.5 µM (inactive) | 10.5 µM (inactive) | 21 µM (inactive) | 9.48 µM (inactive) | 5.66 µM (inactive) |  | 7.43 µM (inactive) | 23.6 µM (inactive)
Cc1c(CC/C(=N\Nc2ccc([N+](=O)[O-])cc2[N+](=O)[O-])c2ccccc2)c2ccccc2n1C | > 100 µM (inactive) | > 44 µM (inactive) | > 100 µM (inactive) | > 100 µM | > 43.2 µM (inactive) | > 100 µM (inactive) | > 100 µM (inactive) | > 100 µM (inactive) |  | > 100 µM (inactive) | > 100 µM (inactive) | > 100 µM (inactive) | > 100 µM (inactive) | > 94.4 µM (inactive) |  | > 100 µM (inactive) | > 50 µM (inactive) | > 100 µM (inactive) | > 100 µM (inactive)

— ChEMBL document CHEMBL1201862, “PubChem BioAssay data set” (2004)
